Laboratory results published in patent US11814416B2, “Polypeptide capable of passing through blood-brain barrier” (SHENZHEN RUIJIAN […] COMPANY, priority 2018, dated 2023).

Experiments:
mice [1] = details: mouse, in vivo
mice [2] = details: mouse, in vivo, iv
mice [3] = details: mouse, in vivo; remark: listed apart in the source

Row | Molecule | tremor symptoms and tremor time (side effects) 30 minutes after administration (mice [1]) | antinociceptive effect 1 hour after injection (mice [2]) | duration of the maximal effect (mice [2]) | onset of antinociceptive effect after nasal administration (mice [3]) | tremor symptoms and tremor time (side effects) 120 minutes after administration, compared with MVIIA (mice [1]) | time of maximal (strongest) antinociceptive effect after administration (mice [2]) [h] | difference from the saline group at 8 hours (mice [3]) | time after which the effect disappears (mice [3]) [h]
1 | CSCC[C@@H]1NC(=O)[C@H](CC(C)C)NC(=O)[C@H](CCCNC(=N)N)NC(=O)[C@H](CO)NC(=O)[C@@H]2CSSC[C@@H]3NC(=O)[C@H](CO)NC(=O)CNC(=O)[C@H]([C@@H](C)O)NC(=O)[C@H](CSSC[C@H](N)C(=O)N[C@@H](CCCCN)C(=O)NCC(=O)N[C@@H](CCCCN)C(=O)NCC(=O)N[C@@H](C)C(=O)N[C@@H](CCCCN)C(=O)N2)NC(=O)[C@H](CSSC[C@@H](C(N)=O)NC(=O)[C@H](CCCCN)NC(=O)CNC(=O)[C@H](CO)NC(=O)[C@H](CCCNC(=N)N)NC3=O)NC(=O)[C@H](CC(=O)O)NC(=O)[C@H](Cc2ccc(O)cc2)NC1=O [MVIIA, reference compound] | more obvious tremor symptoms and longer tremor time |  |  |  |  |  |  | 
2 | CKGKGAKCSRLMYDCCTGSCRSGKCGGGYGRKKRRQRRR [MVIIA-d] | lower than that of MVIIA | showed antinociceptive effects | about 4 hours | immediate effect | no significant differences |  |  | 
3 | CKGKGAKCSRLMYDCCTGSCRSGKCGGYGRKKRRQRRR [MVIIA-c] | lower than that of MVIIA |  | about 4 hours | immediate effect | no significant differences | 3 | still significantly different | 10
4 | CKGKGAKCSRLMYDCCTGSCRSGKCGYGRKKRRQRRR [MVIIA-b] | lower than that of MVIIA | showed antinociceptive effects | about 4 hours | immediate effect | no significant differences |  | still significantly different | 10
5 | CKGKGAKCSRLMYDCCTGSCRSGKCYGRKKRRQRRR [MVIIA-a] | lower than that of MVIIA | showed antinociceptive effects | about 4 hours | immediate effect | no significant differences |  |  | 
